Assay results published in US20070202487A1, “Assay for phospholipidosis” (Cytokinetics, Inc., A Delaware Corporation, priority 2006, published 2007).
Read-outs that look alike come from different tables or passages of the source.

Key:
hepatocytes [1] = assay: Cell death of hepatocytes treated with compound; assay type: cell-based; conditions: Rattus norvegicus, Hepatocyte, arrow in FIG. 5A
hepatocytes [2] = system: hepatocytes
Procedure: As described further below, in certain embodiments, the number of bright and/or punctate regions in the lysosomal marker image is used as an indication of phospholipidosis.
An exemplary procedure for preparing hepatocyte cultures will now be described. Specifically, the procedure involves the use of primary rat hepatocytes as follows:
11. Twenty three thousand cells/well are plated in a 96 flat well plate pre-coated with collagen I (BD Biosciences, San Jose, Calif. or CellzDirect, Tucson, Ariz.). The plates are incubated at 37° C./5% CO2 for two hours. At the end of the two hour incubation, plating medium is aspirated and cold Hepatozyme medium containing 250 micrograms/ml of Matrigel (BD Biosciences) is added, and the plates are incubated overnight.
The following example is a procedure for fixing and staining primary rat hepatocytes to visualize nuclei, lysotracker, and Alexa 647 nm succinimidyl ester reagent (A647SE). A647SE is used to segment individual hepatocytes within an image. • 1) At 24 hr after compound addition to cells, 50 ul of Hepatozyme medium (prewarmed to 37° C.) containing 187.5 nM of lysotracker dye is added to each well. Plates are placed back to incubator for 30 min, then 150 μl of fix solution (8% paraformaldehyde, in 1× PBS) and incubate at room temperature for 30 min. • 2) Aspirate the fix solution, and add 350 μl of wash buffer (1× PBS, 0.02% Triton X-100) to each well. Aspirate and dispense wash buffer 2 times. • 3) Aspirate off the wash buffer, and add 100 ul per well of A647SE mix: 0.5 μg/ml A647SE (stock 10 mg/ml) and 1:1000 dilution of Hoechst 33342 (stock 5 mg/ml) in wash buffer. Incubate at room temperature for one hour in the dark. • 4) Aspirate the staining solution, and add 350 μl of wash buffer (1× PBS, […]) to each well. Aspirate and dispense wash buffer 2 times. Leave the last wash buffer in the well. • 5) Seal the plate and store at room temperature in the dark prior to imaging.
In certain embodiments, a stimulus response curve may be generated for a stimulus of interest. In certain embodiments, the stimulus response curve plots the feature or features used to characterize phospholipidosis (e.g., granularity or mean intensity) against concentrations of a stimulus.

Row | mean intensity of the LysoTracker marker (per-cell basis) versus concentration (hepatocytes [2]) | proportion of bright/punctate cells (LysoTracker images) (hepatocytes [2]) | total granularity versus concentration (hepatocytes [2]) | SMILES | IC50 (hepatocytes [1]) [µM] | induction of phospholipidosis as concluded from the response curves (hepatocytes [2]) | proportion of bright/punctate cells (LysoTracker images) (hepatocytes [2]; at several concentrations below EC50 of cell death, FIG. 2B, versus DMSO control)
1 | increases | increase | spikes | CN(C)CCCN1c2ccccc2Sc2ccc(Cl)cc21 [chlorpromazine] | 25 | induced phospholipidosis | –
2 | – | – | – | C[C@H](CCC(=O)NCCS(=O)(=O)O)[C@H]1CC[C@H]2[C@@H]3CC[C@@H]4C[C@H](O)CC[C@]4(C)[C@H]3CC[C@]12C [Taurolithocholate, taurolithocholate] | – | – | decrease
